Measured values reported in patent US20160022621A1, “COMPOSITION FOR ORAL ADMINISTRATION FOR BINDING ALDEHYDES IN THE GASTROINTESTINAL TRACT” (BIOHIT OYJ, priority 2013, published 2016).

Key:
[1] = Acetaldehyde-binding: acetaldehyde and ethanol levels in gastric juice after oral L-cysteine tablets and ethanol; type: in vivo, human; details: L-cysteine total 200 mg oral, film-coated tablets; ethanol 0.3 g/kg, 15 vol %; all measurements
Method: An analysis was carried out after administering L-cysteine (in a total of 200 mg) or placebo, orally to subjects. This cysteine or placebo was formulated into film-coated tablets as described above, with the cysteine or the placebo in granules together with a polymer not dissolving in the stomach and an inert bulking agent. The subjects swallowed said tablets with 200 ml of water. Immediately thereafter they were given ethanol (0.3 g/kg body weight) diluted in water to 15 vol %. Gastric juice samples were collected, and their L-cysteine concentrations were determined using HPLC, and two parallel samples. […] In all measurements, the average acetaldehyde concentration of the gastric juice was 2.6 times higher with placebo than with cysteine. […] The average ethanol concentration in the gastric juice was 5.0 vol-% in the first sample, declining to 0.9 vol-% in the 40-minute sample. A positive correlation emerged between the acetaldehyde concentration and the ethanol concentration.

[2] = L-cysteine concentration in gastric juice (HPLC) after oral tablets; type: in vivo, human; details: after oral administration of study formulations containing L-cysteine (total 200 mg)
Method: An analysis was carried out after administering L-cysteine (in a total of 200 mg) or placebo, orally to subjects. This cysteine or placebo was formulated into film-coated tablets as described above, with the cysteine or the placebo in granules together with a polymer not dissolving in the stomach and an inert bulking agent. The subjects swallowed said tablets with 200 ml of water. Immediately thereafter they were given ethanol (0.3 g/kg body weight) diluted in water to 15 vol %.
Gastric juice samples were collected, and their L-cysteine concentrations were determined using HPLC, and two parallel samples.
The mean cysteine concentrations are represented in FIG. 2. After administration of placebo formulations, no L-cysteine was detected. No significant correlation was found between the cysteine concentration and the acetaldehyde concentration.

With `N[C@@H](CS)C(=O)O` [L-cysteine] the “average acetaldehyde concentration of the gastric juice, times higher with placebo than with cysteine” value [1] was 2.6 times and the “L-cysteine detected in gastric juice” value [2] was “detected in the gastric juice of all subjects”.
